# Test results reported in a melting point compilation (Tetko et al.; mined from patent text by program, amines drawn as free bases though some values may be those of a salt).
row,SMILES,melting point
1,C#CC[C@H](c1nc2cc(Cl)ccc2c(=O)n1Nc1ccccc1)N(CCCN)C(=O)c1cc(F)cc(F)c1,165 to 167 °C
2,CCn1nc(-c2cccs2)c(C(=O)OCCOC(C)=O)c(Nc2cnccc2C)c1=O,161 to 162 °C
3,Cc1ccc(C2c3c(C)c(N4C(=O)c5cc(Cl)c(Cl)cc5C4=O)c(C)c(C)c3OC2(C)C)cc1 (configuration not stated),157 to 159 °C
4,CC(C)(CCC(C)(C)NCc1ccccc1O)NCc1ccccc1O,111 to 112 °C
5,CCC1(C2CCCC2)Cc2cc(OC)c(Cl)c(Cl)c2C1=O (configuration not stated),163 °C
6,CNC(=O)c1cc(-c2ccc(OC)cc2)nn(C)c1=O,150 to 151 °C
7,N#Cc1ccc(NC(=O)Nc2ccc(S(N)(=O)=O)cc2)cc1,265 to 267 °C
8,Cc1ccc(C2=CCC(=O)CC2)cc1,72 to 74 °C
9,CNC(=O)n1c(NC(=O)c2ccc(NC(=N)N)cc2)nc2ccccc21,188 to 190 °C
10,CCOCCOC(=O)C(=O)Nc1nc(-c2ccc(C(C)(C)C)cc2)cs1,158 to 160 °C
11,CSc1nn(C(C)(C)C)c(=O)c(Cl)c1C1C=CC(C(C)(C)C)CC1 (configuration not stated),82 to 84 °C
12,COc1ccc(CN(C)CCOc2ccc(NC(=O)c3cccc4c(=O)c5cccc(OC)c5[nH]c34)c(C)c2)cc1OC,178 to 179 °C
13,COc1cccc(Cc2cnc(-c3ccccc3)c(-c3ccccc3)n2)c1,65 to 66 °C
14,O=C1N(Cc2ncccc2F)c2ccccc2C12COc1cc3c(cc12)OCCO3 (configuration not stated),125 to 126 °C
15,CC(F)c1ncnc(NCc2ccc(C(C)(C)C)cc2)c1I (configuration not stated),114 to 115 °C
16,COc1cc(N)ccc1-c1ccccc1,56 °C
17,Cc1ccc(S(=O)(=O)N2CCC(c3ccc(C=O)cc3)CC2)cc1,134 to 137 °C
18,COc1cc2c(cc1Br)-c1c(Br)c3c(n1CC2)C(=O)N(C(C)(C)C)CCC3,218 to 220 °C
19,COc1ccc(C(=O)Oc2ccc(C(=O)O)c(C)c2)cc1C12CC3CC(CC(C3)C1)C2,236 to 237 °C
20,CC(=O)Oc1ccc(C(=O)CN(CCNC(=O)Cc2ccccc2)Cc2ccccc2)cc1OC(C)=O,140 to 145 °C
21,C=CC(=O)Oc1ccc(C(=O)c2ccccc2)cc1,44 to 46 °C
22,O=c1c(Cl)c(OCc2ccc(F)cc2F)ccn1Cc1cccc2c1CCNC2,180 to 184 °C
23,O=C(NCCCCOc1cc(CN2CCCCC2)ccn1)c1cn[nH]c1,145 to 147 °C
24,COCNC(=O)NC(=O)C(C#N)=NOC,164 to 165 °C
25,CCOC(=O)Cc1ccc2c(c1)C(O)C(NC(=O)OC)CC2 (configuration not stated),99 to 100 °C

row,SMILES,melting point
1,COc1ccc2ccc(N3C(=O)c4ccccc4C3OCC(=O)NCCC(C)C)nc2n1 (configuration not stated),136 °C
2,O=C(Oc1ccc(Oc2ccc(C(F)(F)F)cn2)cc1)N1CCN(c2ncccc2C(F)(F)F)CC1,131 to 132 °C
3,CCCCOCCOc1ccc(-c2ccc(N3CC=CC3)c(C=C(C)C(=O)O)c2)cc1,138 to 140 °C
4,COc1ccc(C2=NO[C@](CO)(CCO)C2)cc1OC1CCCC1,108 to 109 °C
5,CC(=O)NCCC1CCc2c(Cl)cc3nn(C)cc3c21 (configuration not stated),143 to 144 °C
6,CCCc1nnc2c(=O)n(C)c3ccc(OC)cc3n12,219 to 220 °C
7,Cc1cccc(Nc2ncnc3ccc(CSc4nc5ccccc5[nH]4)cc23)c1,123 to 129 °C
8,COc1ccc(C(=O)NCCCSc2nnnn2C)cc1,118 to 122 °C
9,COc1cc(COc2nn(Cc3ccccc3)cc2C(=O)O)ccc1OCc1nc(-c2ccco2)oc1C,167 to 168 °C
10,CC(C)C[C@H](NC(=O)OCc1ccccc1)C(=O)N[C@@H](Cc1ccccc1)C(=O)CS(C)=O (some centres not stated),97 to 102 °C
11,O=CCCOc1ccc(CC2SC(=O)NC2=O)cc1 (configuration not stated),48 to 51 °C
12,c1cc(-c2ccc(OCCCN3CCCCC3)cc2)ccc1CN1CCCCC1,90 °C
13,COc1ccc(S(=O)(=O)N2C(=O)C(N)(c3ccccc3Cl)c3cc(Cl)ccc32)c([N+](=O)[O-])c1 (configuration not stated),192 to 195 °C
14,Cc1cnc2nc(C(F)(F)F)n(C)c2c1,100 °C
15,COC(=O)CCc1ccc(OCc2cccc(/C=C/c3ccccc3)c2)cc1,100 to 101 °C
16,NC(=O)c1ccc(F)nc1N,198 to 200 °C
17,Cc1cccc(C)c1N1CC(C)N(c2c(C)cccc2C)C1=NC(=O)Oc1ccccc1 (configuration not stated),165 to 166 °C
18,CNC(=O)C(Cc1ccc(OC)cc1)NC(=O)Nc1n[nH]c(=S)s1 (configuration not stated),232 to 233 °C
19,Cc1cc(C#N)cc(C(=O)c2c(C(C)C)c(=O)[nH]c(=O)n2Cc2cc(F)cc(NC(=O)C(F)(F)F)c2)c1,263 to 264 °C
20,O=C(Nc1ccc(I)cc1)c1ccccc1-c1ccc(C(F)(F)F)cc1,147 °C
21,CC(C)[C@H](COc1ccccc1)Nc1nc(Cl)nc2c1ncn2[C@@H]1O[C@H](CO)[C@@H](O)[C@H]1O,95 to 100 °C
22,CS(=O)(=O)c1ccc(Oc2cc(OC3CCOCC3)c3[nH]c(C4=NCC(CC(N)=O)S4)cc3c2)cn1 (configuration not stated),136 to 138 °C
23,CC(C)(C)c1cc(-c2nn(CCO)c3ncccc23)cc(C(C)(C)C)c1O,135 to 137 °C
24,CNC(=O)c1cccc(NC(=O)Cc2cccc3ccccc23)c1,201 to 202 °C
25,N#CC(C#N)=Cc1ccc(OCc2ccccc2)cc1,146 to 148 °C

row,SMILES,melting point
1,Cc1cc(C)nc(-c2ncc([N+](=O)[O-])n2C)n1,148 to 150 °C
2,C=CCN1C(=O)C2CCc3c(OC)c(OC)cc(C)c3C2C1=O (configuration not stated),90 to 91 °C
3,N#Cc1ccc(Sc2cc(Cl)ccc2Cl)c(S(=O)(=O)N2CCNCC2)c1,156 to 162 °C
4,C[C@H]([C@](O)(Cn1cncn1)c1ccc(F)cc1F)S(N)(=O)=O,195 to 197 °C
5,CCOC(=O)c1cn(OC)c2nc3cc(F)c(F)cc3cc2c1=O,266 to 268 °C
6,CNC(C)CN1CCc2c(c(=O)oc3cc(C)c(NC(C)=O)cc23)C1 (configuration not stated),187 to 188 °C
7,CCC[C@](CC=O)(CCc1ccccc1)OCOc1ccc(-c2ccccc2)cc1,47 to 48.5 °C
8,CCOC(=O)c1c(N(CC)CC)c2ccc(C)nc2n(CC)c1=O,79 to 82 °C
9,N#Cc1cnn2c(-c3cccc([N+](=O)[O-])c3)ccnc12,244 to 246 °C
10,COc1cc(Br)cc([N+](=O)[O-])c1N,137 to 138 °C
11,CSC1=NC(=O)C(=Cc2cccc(-c3cc(F)c(O)c(C45CC6CC(CC(C6)C4)C5)c3)c2)S1,270 to 271 °C
12,CCOc1c(NCc2c(C)cc(C)cc2Cl)c(=O)c1=O,292 to 294 °C
13,CC1(C)Oc2ccc(C#N)cc2[C@@H](NC2=C(C=O)C(=O)CC2)[C@@H]1O (relative stereo),255 to 258 °C
14,COC(=O)c1c(N)cc(OC)c(OC)c1OC,94 to 96 °C
15,COC(=O)C1(N(C)C(=O)Cc2c(C)cc(C)cc2C)CCN(OC)CC1,133 to 135 °C
16,COc1ccc2c(c1)C(=O)OC(=O)C2,138 to 140 °C
17,CNC(=O)Cc1ccc2ccn(C3CCN(CCc4ccccc4F)CC3)c2c1,136 to 137 °C
18,CCc1nc(N)nc(N)c1-c1ccc(NCc2ccc(Cl)c(Cl)c2)c([N+](=O)[O-])c1,244 to 246 °C
19,COC(=O)CCSCCCCCCCCCCCCI,33 °C
20,NS(=O)(=O)c1ccc(-c2[nH]c3ccc(Cl)cc3c2-c2ccc(Cl)cc2)cc1,245 to 247 °C
21,Cc1c(Br)c2c(c(C)c1NC(=O)OC(C)(C)C)C(N(C)C)C(C)(C)O2 (configuration not stated),111 to 112 °C
22,COC1=CC23CCN(C)C(Cc4ccc(OC)c(O)c42)C3=CC1C (configuration not stated),97 to 100 °C
23,COCc1c(C=O)ncc2c1c1c(OCc3ccccc3)cccc1n2CC(=O)N(C)CCc1ccccc1,192 to 197 °C
24,CCOC(=O)CN1C(=O)CSC1=NN=C(C)C,60 to 62 °C
25,CNc1c(C(=O)OC)cccc1[N+](=O)[O-],138 to 140 °C

row,SMILES,melting point
1,N#CCC1(c2onc(-c3ccc(O)cc3)c2-c2ccccc2)CC1,189 to 190 °C
2,Cc1cccc2c(Nc3ccc(OCCCCN(CCCl)CCCl)cc3)c3cccc(C(=O)NCCN(C)C)c3nc12,166 to 167 °C
3,CCOC(=O)CCc1cccc2c1Sc1cc(C#N)ccc1CC2,61 to 62 °C
4,CCOc1ccc(-c2c(Cl)c(CCl)nc3sc4c(c23)CCN(C(=O)OCc2ccccc2)C4)cc1,159 to 161 °C
5,CCOC(=O)Cc1ccc2c(c1)CC(NC(=O)OC)CC2 (configuration not stated),89 to 90 °C
6,Cc1ccc2c(c1)c(-c1ccc(F)cc1)c(C)n2C1CCN(CCN2CCNC2=O)CC1,188 to 190 °C
7,COc1cc(-c2nc3sccn3c2-c2ccnc(N[C@@H]3CCCN(S(=O)(=O)c4ccc(Cl)cc4)C3)n2)ccc1F,142 to 143 °C
8,CC1(C)Oc2cc([N+](=O)[O-])ccc2[C@@H](N2Cc3ccccc3C2=O)[C@@H]1O (relative stereo),249 to 250 °C
9,CC(=O)NC[C@H]1CN(c2ccc(N3CCC4(CC3)COCCO4)c(F)c2)C(=O)O1,114 to 116 °C
10,CON=C(C(=O)OC)c1ccccc1-c1nnc(-c2cccc(C)c2)o1,166 to 167 °C
11,Cc1ccc(S(=O)C(C(=O)OC(C)(C)C)C(O)CC(OC2CCCCO2)c2ccc(Oc3ccccc3)cc2)cc1 (configuration not stated),140 to 145 °C
12,CCOP(=O)(/C=C/c1cn(-c2ccccc2)nc1OCc1ccc(OCc2nc(-c3cccc(C(=O)OC)c3)oc2C)c(OC)c1)OCC,112 to 113 °C
13,CN(C)S(=O)(=O)c1cc(-c2csc(=Nc3ccc(O)cc3)n2C)ccc1Cl,188 to 190 °C
14,Cc1nnc(NC(C)C)s1,145 °C
15,CC(=O)c1ccc(S(=O)(=O)NCC(=O)O)cc1,213 to 215 °C
16,Cc1nn(-c2ccc(Cl)cc2Cl)c(=O)n(C)c1=O,109 to 110 °C
17,CC(=O)NC[C@H]1CN(c2ccc3c(c2)C[C@@H](C)N3C=O)C(=O)O1,158 to 159 °C
18,CCn1c(=O)c(-c2ccc3ccccc3c2)cc2cnc(Nc3ccccc3)nc21,254 to 256 °C
19,CCc1ccc(N2CCCN(c3cc[nH]c(=S)c3C#N)CC2)cc1,226 to 229 °C
20,COc1ccc(OC)c2c1C[C@](C)(O)CC21SCCS1,152 to 153 °C
21,O=C(NNS(=O)(=O)c1ccccc1)c1ccccc1Oc1ccccc1,149 to 150 °C
22,CCCCCn1c(C)c(C(=O)c2ccc(Cl)c3ccccc23)c2cccc(OC)c21,112 °C
